# From patent US11524938B2, “Aromatic sulfonamide derivatives” (Bayer Pharma Aktiengesellschaft, priority 2016, dated 2022)
# “And” between values parts separate entries of the source, which are not always exact repeats. Identical values can stand only once.
# Biological target: T1, human P2X4 (Homo sapiens, UniProt Q99571)
# T1 sequence (Q99571 1-388): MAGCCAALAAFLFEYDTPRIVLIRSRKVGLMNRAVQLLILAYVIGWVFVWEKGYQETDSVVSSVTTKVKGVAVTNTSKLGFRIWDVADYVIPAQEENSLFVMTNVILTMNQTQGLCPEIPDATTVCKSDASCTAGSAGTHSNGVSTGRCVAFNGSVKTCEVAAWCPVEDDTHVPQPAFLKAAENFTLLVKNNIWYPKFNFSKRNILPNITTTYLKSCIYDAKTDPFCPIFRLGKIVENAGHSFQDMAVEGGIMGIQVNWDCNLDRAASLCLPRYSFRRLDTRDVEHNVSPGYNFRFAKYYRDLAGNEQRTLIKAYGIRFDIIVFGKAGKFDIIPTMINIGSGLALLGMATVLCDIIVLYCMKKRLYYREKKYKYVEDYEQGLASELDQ
# Experiment: Human P2X4 HEK Cell FLIPR Assay
# Assay type: cell-based
# Details: agonist Bz-ATP at EC80; for Emax: HEK293, HEK293 cells, percentage of maximal inhibition, read-out: Human P2X4 HEK Cells (FLIPR Assay) avg Efficacy [%]; for IC50: HEK293 cells, individual values listed where some fall outside detection range
# Summary of the method: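 Calcium flux read by FLIPR for 120 sec after Bz-ATP challenge at EC80 (established each assay day), following 30 min room-temperature compound preincubation in dye-loaded stable human P2X4 HEK293 cells. Peak RFU over basal normalized to agonist control; IC50, maximal inhibition and Hill coefficient from triplicate means.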
Compound,Emax [%],IC50
"NS(=O)(=O)c1cc(NC(=O)Cc2ccc(C(F)(F)F)cc2Cl)ccc1-n1ncc(C(F)(F)F)n1 [Example 414, 2-[2-Chloro-4-(trifluoromethyl)phenyl]-N-{3-sulfamoyl-4-[4-(trifluoromethyl)-2H-1,2,3-triazol-2-yl]phenyl}acetamide]",20,> 25 µM
"NS(=O)(=O)c1cc(NC(=O)Cc2ccc(C(F)(F)F)cc2Cl)ccc1-n1cc(C(F)(F)F)nn1 [Example 415, 2-[2-Chloro-4-(trifluoromethyl)phenyl]-N-{3-sulfamoyl-4-[4-(trifluoromethyl)-1H-1,2,3-triazol-1-yl]phenyl}acetamide]",69,0.2 µM
"NS(=O)(=O)c1cc(NC(=O)Cc2ccc(Cl)cc2Cl)ccc1-n1ncc(C(F)(F)F)n1 [Example 416, 2-(2,4-Dichlorophenyl)-N-{3-sulfamoyl-4-[4-(trifluoromethyl)-2H-1,2,3-triazol-2-yl]phenyl}acetamide]",51,8.3 µM and 17.8 µM and > 25 µM (2×)
"NS(=O)(=O)c1cc(NC(=O)Cc2ccc(Cl)cc2Cl)ccc1-n1cc(C(F)(F)F)nn1 [Example 417, 2-(2,4-Dichlorophenyl)-N-{3-sulfamoyl-4-[4-(trifluoromethyl)-1H-1,2,3-triazol-1-yl]phenyl}acetamide]",68,0.051 µM
"NS(=O)(=O)c1cc(NC(=O)Cc2ccccc2Cl)ccc1-c1ccsn1 [Example 419, 2-(2-Chlorophenyl)-N-[3-sulfamoyl-4-(1,2-thiazol-3-yl)phenyl]acetamide]",89,0.274 µM
"Cc1nc(-c2ccc(NC(=O)Cc3ccccc3Cl)cc2S(N)(=O)=O)cs1 [Example 420, 2-(2-Chlorophenyl)-N-[4-(2-methyl-1,3-thiazol-4-yl)-3-sulfamoylphenyl]acetamide]",75,0.069 µM
"COc1nc(-c2ccc(NC(=O)Cc3ccccc3Cl)cc2S(N)(=O)=O)cs1 [Example 421, 2-(2-Chlorophenyl)-N-[4-(2-methoxy-1,3-thiazol-4-yl)-3-sulfamoylphenyl]acetamide]",86,0.68 µM
"N#Cc1csc(-c2ccc(NC(=O)Cc3ccccc3Cl)cc2S(N)(=O)=O)n1 [Example 428, 2-(2-Chlorophenyl)-N-[4-(4-cyano-1,3-thiazol-2-yl)-3-sulfamoylphenyl]acetamide]",57,0.027 µM
"NS(=O)(=O)c1cc(NC(=O)Cc2ccccc2Cl)ccc1-c1csc(C2CC2)n1 [Example 431, 2-(2-Chlorophenyl)-N-[4-(2-cyclopropyl-1,3-thiazol-4-yl)-3-sulfamoylphenyl]acetamide]",83,2.88 µM
"Cc1coc(-c2ccc(NC(=O)Cc3ccccc3Cl)cc2S(N)(=O)=O)n1 [Example 432, 2-(2-Chlorophenyl)-N-[4-(4-methyl-1,3-oxazol-2-yl)-3-sulfamoylphenyl]acetamide]",92,0.597 µM
"NS(=O)(=O)c1cc(NC(=O)Cc2ccccc2Cl)ccc1-c1csc(C(F)(F)F)n1 [Example 433, 2-(2-Chlorophenyl)-N-{3-sulfamoyl-4-[2-(trifluoromethyl)-1,3-thiazol-4-yl]phenyl}acetamide]",28,> 25 µM
"NS(=O)(=O)c1cc(NC(=O)Cc2ccccc2Cl)ccc1-c1nc(C(F)(F)F)cs1 [Example 434, 2-(2-Chlorophenyl)-N-{3-sulfamoyl-4-[4-(trifluoromethyl)-1,3-thiazol-2-yl]phenyl}acetamide]",50,17.8 µM and > 25 µM
"CC(C)(O)c1nc(-c2ccc(NC(=O)Cc3ccccc3Cl)cc2S(N)(=O)=O)cs1 [Example 436, 2-(2-Chlorophenyl)-N-{4-[2-(2-hydroxypropan-2-yl)-1,3-thiazol-4-yl]-3-sulfamoylphenyl}acetamide]",56,12.5 µM
"NS(=O)(=O)c1cc(NC(=O)Cc2ccccc2Cl)ccc1-c1cc(C2CC2)on1 [Example 438, 2-(2-Chlorophenyl)-N-[4-(5-cyclopropyl-1,2-oxazol-3-yl)-3-sulfamoylphenyl]acetamide]",75,0.018 µM
"NS(=O)(=O)c1cc(NC(=O)Cc2ccccc2Cl)ccc1-c1cnc(C2CC2)o1 [Example 439, 2-(2-Chlorophenyl)-N-[4-(2-cyclopropyl-1,3-oxazol-5-yl)-3-sulfamoylphenyl]acetamide]",94,0.004 µM
"NS(=O)(=O)c1cc(NC(=O)Cc2ccccc2Cl)ccc1-n1cc(C(=O)N2CC(F)(F)C2)cn1 [Example 440, 2-(2-Chlorophenyl)-N-(4-{4-[(3,3-difluoroazetidin-1-yl)carbonyl]-1H-pyrazol-1-yl}-3-sulfamoylphenyl)acetamide]",96,0.112 µM
"NS(=O)(=O)c1cc(NC(=O)Cc2ccccc2Cl)ccc1-n1cc(C(=O)N2CCC2)cn1 [Example 441, N-{4-[4-(Azetidin-1-ylcarbonyl)-1H-pyrazol-1-yl]-3-sulfamoylphenyl}-2-(2-chlorophenyl)acetamide]",91,0.185 µM
"NS(=O)(=O)c1cc(NC(=O)Cc2ccccc2Cl)ccc1-n1cc(C(=O)N2CCCC2)cn1 [Example 442, 2-(2-Chlorophenyl)-N-{4-[4-(pyrrolidin-1-ylcarbonyl)-1H-pyrazol-1-yl]-3-sulfamoylphenyl}acetamide]",89,0.181 µM
"NS(=O)(=O)c1cc(NC(=O)Cc2ccccc2Cl)ccc1-n1cc(C(=O)N2CCC(F)(F)C2)cn1 [Example 443, 2-(2-Chlorophenyl)-N-(4-{4-[(3,3-difluoropyrrolidin-1-yl)carbonyl]-1H-pyrazol-1-yl}-3-sulfamoylphenyl)acetamide]",84,0.122 µM
"NS(=O)(=O)c1cc(NC(=O)Cc2ccc(Cl)cc2)ccc1-c1cncc(C(F)(F)F)c1 [Example 444, 2-(4-Chlorophenyl)-N-{3-sulfamoyl-4-[5-(trifluoromethyl)pyridin-3-yl]phenyl}acetamide]",77,0.635 µM
"NS(=O)(=O)c1cc(NC(=O)Cc2c(F)cccc2Cl)ccc1-c1cncc(C(F)(F)F)c1 [Example 445, 2-(2-Chloro-6-fluorophenyl)-N-{3-sulfamoyl-4-[5-(trifluoromethyl)pyridin-3-yl]phenyl}acetamide]",71,0.06 µM

# The next lines start with the values.
Emax [%],IC50,Compound
91,0.015 µM,"NS(=O)(=O)c1cc(NC(=O)Cc2ccccc2Cl)ccc1-c1cncs1 [Example 418, 2-(2-Chlorophenyl)-N-[3-sulfamoyl-4-(1,3-thiazol-5-yl)phenyl]acetamide]"
90,0.046 µM,"COc1ncc(-c2ccc(NC(=O)Cc3ccccc3Cl)cc2S(N)(=O)=O)s1 [Example 422, 2-(2-Chlorophenyl)-N-[4-(2-methoxy-1,3-thiazol-5-yl)-3-sulfamoylphenyl]acetamide]"
86,0.053 µM,"Cc1ncc(-c2ccc(NC(=O)Cc3ccccc3Cl)cc2S(N)(=O)=O)s1 [Example 423, 2-(2-Chlorophenyl)-N-[4-(2-methyl-1,3-thiazol-5-yl)-3-sulfamoylphenyl]acetamide]"
88,0.029 µM,"Cc1cc(-c2ccc(NC(=O)Cc3ccccc3Cl)cc2S(N)(=O)=O)sn1 [Example 424, 2-(2-Chlorophenyl)-N-[4-(3-methyl-1,2-thiazol-5-yl)-3-sulfamoylphenyl]acetamide]"
74,0.05 µM,"Cc1csc(-c2ccc(NC(=O)Cc3ccccc3Cl)cc2S(N)(=O)=O)n1 [Example 425, 2-(2-Chlorophenyl)-N-[4-(4-methyl-1,3-thiazol-2-yl)-3-sulfamoylphenyl]acetamide]"
86,0.024 µM,"NS(=O)(=O)c1cc(NC(=O)Cc2ccccc2Cl)ccc1-c1cnsc1 [Example 426, 2-(2-Chlorophenyl)-N-[3-sulfamoyl-4-(1,2-thiazol-4-yl)phenyl]acetamide]"
65,0.072 µM,"NS(=O)(=O)c1cc(NC(=O)Cc2ccccc2Cl)ccc1-c1nccs1 [Example 427, 2-(2-Chlorophenyl)-N-[3-sulfamoyl-4-(1,3-thiazol-2-yl)phenyl]acetamide]"
91,0.108 µM,"NS(=O)(=O)c1cc(NC(=O)Cc2ccccc2Cl)ccc1-c1cnc(C(F)F)s1 [Example 429, 2-(2-Chlorophenyl)-N-{4-[2-(difluoromethyl)-1,3-thiazol-5-yl]-3-sulfamoylphenyl}acetamide]"
87,0.086 µM,"NS(=O)(=O)c1cc(NC(=O)Cc2ccccc2Cl)ccc1-c1cnc(C2CC2)s1 [Example 430, 2-(2-Chlorophenyl)-N-[4-(2-cyclopropyl-1,3-thiazol-5-yl)-3-sulfamoylphenyl]acetamide]"
77,0.588 µM,"CC(C)(O)c1ncc(-c2ccc(NC(=O)Cc3ccccc3Cl)cc2S(N)(=O)=O)s1 [Example 435, 2-(2-Chlorophenyl)-N-{4-[2-(2-hydroxypropan-2-yl)-1,3-thiazol-5-yl]-3-sulfamoylphenyl}acetamide]"
53,0.039 µM,"NS(=O)(=O)c1cc(NC(=O)Cc2ccccc2Cl)ccc1-c1cscn1 [Example 437, 2-(2-Chlorophenyl)-N-[3-sulfamoyl-4-(1,3-thiazol-4-yl)phenyl]acetamide]"
